Results from US6365175B1 (Unilever Patent Holdings, priority 1998, dated 2002).
Entries after “also recorded” stand apart in the source; their conditions may differ.

What was measured:
decorin = test: Dot blot assay for decorin protein in dermal fibroblast conditioned medium; assay type: cell-based, human; settings: for Decorin (% of control): fibroblasts, mean ± SD; for decorin levels in fibroblasts: single agent, in words
Experimental: Primary human foreskin fibroblasts at passage 2 (P2) were seeded into 12-well plates at 10000 cells/cm^2 and maintained for 24 hours in an atmosphere of 5% carbon dioxide and 4% oxygen in Dulbeccos Modified Eagles Medium (DMEM) supplemented with 10% foetal calf serum. After this time the cells were washed with serum free DMEM and then incubated in fresh serum free DMEM for a further 60 hours. The fibroblast monolayers were then washed again with serum free DMEM. […] This fibroblast conditioned medium was either analysed immediatedly or snap frozen in liquid nitrogen and stored at −70° C. for future analysis. The cells were then counted and data from the dot-blot analysis subsequently standardised to cell number.
Samples of conditioned medium from dermal fibroblasts treated with vehicle (as a control) or test reagents were supplemented with 20 mM dithiothreitol (1:10 dilution of 200 mM stock solution) and 0.1% sodium dodecylsulphate (1:100 dilution of 10% stock solution), mixed well and then incubated at 75° C. for 2 minutes. A standard for the assay was generated by serial dilution of neat fibroblast conditioned medium from fibroblasts seeded at 10000 cells/cm^2 in a 175 cm^2 flask and maintained in serum free DMEM as described above. Assay samples were subsequently applied in triplicate to a prewetted sheet of Immobilon-P transfer membrane using the 96-well Bio-Dot Apparatus from Bio-Rad as described in the manufacturers guidelines. Approximately 200 μl of medium was applied per well. The medium was allowed to filter through the membrane under gravity (30 minutes) after which the membrane was washed twice with PBS (200 μl). These PBS washes were allowed to filter through the membrane under gravity (2×15 minutes). The Bio-Dot apparatus was then attached to a vacuum manifold and a third and final PBS wash carried out under suction. The apparatus was disassembled, the membrane removed and quickly cut as required before being placed in blocking buffer overnight at 4° C. Membranes prepared for decorin analysis were blocked with 3% (w/v) bovine serum albumin (BSA)/ 0.1% (v/v) Tween 20 in phosphate buffered saline (PBS), whilst those for procollagen-I analysis were blocked with 5% (w/v) non fat dried milk powder/0.05% Tween 20 in PBS. The following day, the membranes were probed with 1:10000 dilution of primary antibodies to human decorin (rabbit polyclonal; Biogenesis) for 2 hours at room temperature. The membranes were subsequently washed with TBS/0.05% Tween 20 (3×5 minutes) and then incubated with 1:1000 dilution of ^125I-conjugated anti-rat or anti-rabbit F(ab′)2 fragments (Amersham) as required for 1 hour at room temperature. Following this the Immobilon strips were again washed with TBS/Tween 20 (3×5 minutes) before being allowed to dry in air at room temperature. The dried membranes were wrapped in cellophane and exposed to a Molecular Dynamics storage phosphor screen for 16-18 hours. At the end of this time the exposed screen was scanned by a phosphorimager (Molecular Dynamics Phosphorimager SF) using ImageQuant™ software. Dot intensity was assessed by computer-assisted image analysis using the quantification tools in ImageQuant™, standardised to cell number and the effects of various test reagents on decorin and procollagen-I synthesis were determined relative to a vehicle treated control value of 100 arbitrary units.

[1] = tested on: intracellular adhesion molecules (ICAM); test: Glutathione (GSH) depletion model in fibroblasts (BSO and PMA), ICAM; assay type: cell-based, human; settings: BSO and PMA treated fibroblasts, FIG. 3
Experimental: (§1) Primary human foreskin fibroblasts at passage 2 (P2) were seeded into 96-well plates at 10000 cells/well and maintained for 24 hours in an atmosphere of 5% carbon dioxide in Dulbeccos Modified Eagles Medium (DMEM) supplemented with 10% foetal calf serum. […] Phorbal myristate acetate (PMA) in ethanol/cell media ([…]) was added to the media and the cells incubated for a futher 24 hours. PMA represents an external stressor which induces oxidative stress and inflammatory responses in cells. The fibroblasts/media were then analysed as described below immediately or snap frozen in liquid nitrogen and stored at −70° C. for future analysis. The cells were then counted to ensure no effect on cell number.
Media were discarded and cells washed with Dulbecco PBS. To the washed cells, 150 μl 0.1% Triton X-100 (Sigma) was added for 3 minutes to extract ICAM from cell membrane. The extracts were transferred to Eppendoff centrifuge tubes and centrifuged at 1000 g for 2 min to remove cell debris. A volume of 100 μl supernatant was used for ICAM assay. The soluble ICAM-1 was assessed with commercially available immunoenzymometric assay kit (R&D Systems). Concentrations of ICAM-1 in the samples were determined based on parallelly running standard curve.
L-Buthionine sulfoximine (BSO, Sigma), a specific inhibitor of γ-glutamylcysteine synthetase, was used to deplete intracellular GSH levels. This depletion model is based on the natural degradation of GSH while synthesis is inhibited. BSO is added to the fibroblast cell media after 24 hours (0.25 mM), this is predissolved in DMSO (DMSO, final concentration <1%). In addition, where stated, the antioxidants Epigallocatechingallate (ECGC) and Quercetin were also added to the media after 24 h. The former was dissolved directly in the media, quercetin was initially dissolved in ethanol, this was then diluted 500 fold into the media.

[2] = tested on: Prostaglandin E2 (PGE2) production; test: PMA-induced PGE2 production, fibroblast cell assay; assay type: cell-based, human; settings: FIG. 1
Experimental: (§2) It is emphasized that the anti-inflammatory effects were determined by in vitro tests wherein the production of intracellular adhesion molecules (=ICAM) and Prostaglandin E2 (=PGE2) production by the human skin fibroblasts is measured after being induced by the inflammatory modulus phorbyl myristyl acetate (PMA). Effects on basal PGE2 levels in keratinocytes are also measured. A reduction of the levels of ICAM and PGE2 is indicative for the anti-inflammatory effect.
Primary human foreskin fibroblasts at passage 2 (P2) were seeded into 96-well plates at 10000 cells/well and maintained for 24 hours in an atmosphere of 5% carbon dioxide in Dulbeccos Modified Eagles Medium (DMEM) supplemented with 10% foetal calf serum. […] The fibroblasts/media were then analysed as described below immediately or snap frozen in liquid nitrogen and stored at −70° C. for future analysis. The cells were then counted to ensure no effect on cell number.
Volumes of 50 μl culture medium were taken for PGE2 assay after gently shaking the culture plate. PGE2 levels in the medium were determined with a Biotrak PGE2 immunoassay kit (Amersham, UK). The assay is based on the competition between unlabelled PGE2 in the sample and a fixed quantity of horseradish peroxidase labelled PGE2 for a limited amount of fixed PGE2 specific antibody. […]

[3] = tested on: basal PGE2 levels in keratinocytes; test: Keratinocyte PGE2 assay; assay type: cell-based; settings: 0.1 μM and 1 μM, 24 h
Source text: The medium was then removed and assayed for the pro-inflammatory PGE2 content by Enzyme-linked immunoassay.

[4] = tested on: intracellular adhesion molecules (ICAM); test: ICAM-1 assay in fibroblasts, basal and PMA-induced; assay type: cell-based, human; settings: FIG. 2
Experimental: as §2
as §1, with “PMA represents an external stressor which induces oxidative stress and inflammatory responses in cells.” left out
Media were discarded and cells washed with Dulbecco PBS. […] The soluble ICAM-1 was assessed with commercially available immunoenzymometric assay kit (R&D Systems). Concentrations of ICAM-1 in the samples were determined based on parallelly running standard curve.

Row | Compound | Decorin (% of control) (decorin; 1 μg / ml) | Decorin (% of control) (decorin; 2.5 μg / ml) | Decorin (% of control) (decorin; 5 μg / ml) | decorin levels in fibroblasts (decorin) | ICAM response ([1]; antioxidant alone 10 μM) | also measured
1 | O=C(O)c1cc(O)c(O)c(O)c1 [Gallic acid] | 136.9 ± 4.2 % of control | 163.4 ± 6.5 % of control | 161.8 ± 6.6 % of control | can also exert this effect |  | 
2 | O=C(O[C@@H]1Cc2c(O)cc(O)cc2O[C@@H]1c1cc(O)c(O)c(O)c1)c1cc(O)c(O)c(O)c1 [EGCG, Epigallocatechingallate] | 167.5 ± 11.8 % of control | 188.6 ± 9.4 % of control | 258.2 ± 6.1 % of control | can also exert this effect | decrease the ICAM response | 
3 | O=c1c(-c2ccc(O)cc2)coc2cc(O)cc(O)c12 [genistein] |  |  |  | can also exert this effect |  | 
4 | CCCCCCCCCCC/C=C\CCCCC(=O)O [Petroselinic acid] |  |  |  | boost decorin levels |  | PGE2 response ([2]; PMA treated cells pre-incubated with 0.1, 1.0, 10 and 100 μM): significant decrease; inflammatory response as measured by PGE2 production ([2]; PMA-challenged fibroblasts, 0.1 μM): dramatically reduces; ICAM response ([1]; petroselinic acid alone 0.01 μM): no effect; basal levels of secreted PGE2 ([3]; FIG. 5): significantly reduce; basal levels of secreted PGE2 ([3]; FIG. 5, listed as petroselinic acid): reduced the basal levels; production of ICAM / ICAM response ([4]; PMA-stimulated fibroblasts pre-incubated with 0.1, 1.0, 10 and 100 μM): reduction in ICAM; also recorded: significant decrease; production of ICAM ([4]; basal condition (control), fibroblasts, 100 μM): reduction in ICAM
5 | O=c1c(O)c(-c2ccc(O)c(O)c2)oc2cc(O)cc(O)c12 [Quercetin] |  |  |  |  | decrease the ICAM response | 
6 | O=c1c(-c2ccc(O)cc2)coc2cc(O)ccc12 [diadzein] |  |  |  | can also exert this effect |  | 
